{"source": "patent US20240000950A1", "about": "“THERAPEUTIC CURE-PRO COMPOUNDS FOR TARGETED DEGRADATION OF BET DOMAIN PROTEINS, AND METHODS OF MAKING AND USING THEM” (CORNELL UNIVERSITY, priority 2020, published 2024)", "key": {"BRD4 [1]": {"molecular_target": "T1, BRD4 (Homo sapiens, UniProt O60885)", "experiment": "CURE-PRO-mediated BRD4 degradation in HeLa cells, WES capillary electrophoresis (ProteinSimple)", "format": "cell-based", "parameters": "endogenous in cells; host or cells: HeLa", "conditions": "for BRD4 degradation: 24 h, co-dosed with CRBN ligand 8047, 100 nM-10 μM each", "experimental": "(§1) All cell lines were purchased from ATCC or DSMZ and grown at 37° C. with 5% C02. Human HeLa cells were cultured in complete growth medium (Dulbecco's modified Eagle's medium (DMEM) supplemented with 10% FBS); MCF7 cells were cultured in complete growth medium (Dulbecco's modified Eagle's medium (DMEM) supplemented with 10% FBS and 0.01 mg/ml human recombinant insulin (Sigma Aldrich); Namalwa and MOLM-13 cells were cultured in complete growth medium (RPMI 1640 medium supplemented with 10% FBS); MV-4-11 were cultured in complete growth medium (Iscove's Modified Dulbecco's medium, supplemented with 10% FBS); HCT116 cells were cultured in complete growth medium (McCoy's 5a Medium supplemented with 10% FBS). For cellular degradation of BRD4 studies, cells were seeded in a 12-well plate at 70-80% confluency, allowed to attach overnight, and incubated with the indicated compounds for the indicated time. When indicated, a 15-minute pretreatment with 10 μM pomalidomide, 10 μM VHL298, 10 μM Nutlin3a, 1 μM MG-132 or 1 μM Carfilzomib was performed before the addition of CURE-PROs. For washout studies, after CURE-PRO treatment, media was aspirated and incubated with complete medium for the indicated time before lysis.\n(§2) Anti-BRD4 (13440, 1:1,000 dilution for Western Blot and 1:25 dilution for ProteinSimple); Anti-BRD2 (5848 1:1,000 dilution for Western Blot and 1:25 dilution for ProteinSimple); β-Actin (3700, 1:2,000 dilution for Western Blot), β-Actin (4970, 1:50 dilution for ProteinSimple) anti-mouse IgG-HRP, and anti-rabbit IgG-HRP antibodies were purchased Cell Signaling Technology. Anti-GAPDH (600-401-A33, 1:100 dilution for ProteinSimple) was purchased from Rockland Immunochemicals, Inc. Anti-BRD3 (sc-81202, 1:200 dilution for Western Blot) was purchased from Santa Cruz Biotechnology.\nWES Simple analysis was performed on WES system (ProteinSimple-Biotechne) according to the manufacturer's instructions. Total protein concentrations of cell lysates were determined by the Pierce BCA kit (Thermo Fisher). 3 μL of 0.3 μg/uL of the protein lysate was loaded onto a 12- to 230-kDa WES assay plate (ProteinSimple) where 300 nL sample was withdrawn through a capillary, subjected to electrophoretic separation of proteins by size, and followed by the simultaneous, HRP-based detection of proteins using the Anti-Rabbit Detection Module (Proteinsimple: #DM-001). The electropherograms were checked then the automatic peak detection was manually corrected if it was required.\nHeLa cells (2.5×10^6) were treated for 4-24 hours with the compounds solubilized in DMSO. After 4 hours, indicated points were washed and cells were left in full growth media. Compounds were added at 10 μM each. […]"}, "SLC19A1": {"test_system": "SLC19A1", "experiment": "Suppression of the c-MYC downstream target gene SLC19A1, RT-PCR in HeLa cells", "format": "cell-based, Human", "conditions": "24 h", "experimental": "The suppression of the expression of the downstream c-MYC target, SLC19A1, was measured by RT-PCR using Power SYBR® Green Cells-to-Ct™ Kit (Life Technologies). Adherent cells were plated on 96 well plates at 5,000 cells per well were treated for 24 h with monomer compounds and compounds capable of reversible interactions (1 nM-100 μM). Cells were subsequently washed in ice-cold PBS processed according to the manufacturer's instructions. Quantitative real-time PCR was performed using a ViiA™ 7 Real-time PCR System (Applied Biosystems, Foster City, CA, USA). GAPDH and ACTB served as internal controls. The primers used were (5′-3′): GAPDH-F: AGCCACATCGCTCAGACAC (SEQ ID NO:9), GAPDH-R: GCCCAATACGACCAAATCC (SEQ ID NO:10), ACTB-F: CCAACCGCGAGAAGATGA (SEQ ID NO:11), ACTB-R: […] (SEQ ID NO:12), SLC19A1-F: […] (SEQ ID NO:13), SLC19A1-R: […] (SEQ ID NO:14).\nHeLa cells (1×104) were treated for 24 hours in 96 well plates with the compounds solubilized in DMSO. Compounds were added at 10 μM each and RNA expression measured by the Cells-to Ct method described above (Thermofisher)."}, "BRD4 [2]": {"molecular_target": "T1, BRD4", "experiment": "BRD protein family degradation in HCT116 cells with MDM2 ligands, Western blot: BRD4", "format": "cell-based", "parameters": "endogenous in cells; host or cells: HeLa, MCF7 or HCT116", "conditions": "24 h, with MDM2 ligands 8310 / 8312", "experimental": "as §1, with “When indicated, a 15-minute pretreatment with 10 μM pomalidomide, 10 μM VHL298, 10 μM Nutlin3a, 1 μM MG-132 or 1 μM Carfilzomib was performed before the addition of CURE-PROs. For washout studies, after CURE-PRO treatment, media was aspirated and incubated with complete medium for the indicated time before lysis.” left out\nHeLa, MCF7, or HCT116 cells (2.5-3×10^6) were treated for 24 hours with the indicated compounds solubilized in DMSO. […] The total protein concentrations were determined by Bradford Protein Assay and 10-20 μg of protein was loaded onto 4-15% Tris-Glycine gradient gels (Biorad). […] Signal was detected with ECL Western Blotting Substrate (Pierce) and X-ray film processed with a Konica SRX-101 X-ray film processor or captured by Bio-Rad's Chemidoc Imaging system. […]"}, "BRD4 [3]": {"molecular_target": "T1, BRD4", "experiment": "Summary of E3 ligase directed degradation of BRD4, estimated from Western Blot or WES (Tables 1-6)", "format": "cell-based", "parameters": "endogenous in cells; host or cells: HeLa, MCF7 or HCT116", "conditions": "for Degradation of BRD4, combination with CRBN ligand [drawing 421] / Degradation of BRD4, combination with CRBN ligand [drawing 422]: Table 1; for Degradation of BRD4, combination with CRBN ligand [drawing 421]: CRBN ligand drawn as drawing 421 (by the text apparently 8047); for Degradation of BRD4, combination with CRBN ligand [drawing 422]: CRBN ligand drawn as drawing 422 (by the text apparently 8066)", "summary_of_the_method": "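HeLa, MCF7 or HCT116 cells treated 24 h with compounds in DMSO, lysed in RIPA buffer; BRD4 levels read by Western blot (ECL detection) or capillary WES with HRP detection. Check mark denotes 30% to 70% or higher protein degradation.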"}, "BRD4 [4]": {"molecular_target": "T1, BRD4", "experiment": "CURE-PRO-mediated BRD4 degradation in HeLa cells, Western blot", "format": "cell-based", "parameters": "endogenous in cells; host or cells: HeLa", "conditions": "24 h", "experimental": "as §1, §2\nHeLa, MCF7, or HCT116 cells (2.5-3×10^6) were treated for 24 hours with the indicated compounds solubilized in DMSO. The cells were washed in ice-cold PBS and were then lysed in RIPA lysis buffer (150 mM NaCl, 5 mM EDTA, 1% NP-40, 0.5% sodium deoxycholate, 0.1% SDS, 50 mM Tris, pH 8.0) with Roche protease inhibitor complete cocktail and phosphatase inhibitors (10 mM sodium fluoride, 10 mM sodium pyrophosphate, 1 mM sodium orthovanadate and 20 mM β-glycerophosphate). The total protein concentrations were determined by Bradford Protein Assay and 10-20 μg of protein was loaded onto 4-15% Tris-Glycine gradient gels (Biorad). After standard gel electrophoresis, the separated proteins were transferred to PVDF membrane by wet transfer. The immunoblots were then blocked for 1 hour in 5% skim milk in TBST or 5% BSA in TBST, according to manufacturer's instructions, before an overnight incubation at 4° C. with indicated antibodies and membranes. Membranes were then incubated with the appropriate horseradish peroxidase-conjugated secondary antibodies (1:5,000 dilution) for 1 h at room temperature and the bands were visualized using the Clarity Max Western ECL Substrate (Biorad) and the ChemiDoc Imaging System (Biorad). Signal was detected with ECL Western Blotting Substrate (Pierce) and X-ray film processed with a Konica SRX-101 X-ray film processor or captured by Bio-Rad's Chemidoc Imaging system.\nHeLa cells (2.5×10^6) were treated for 24 hours with the sample compounds solubilized in DMSO. Compounds were added at 1-10 μM each. Standardized protein samples were electrophoresed and imaged as described in the immunoblotting description above. FIGS. 6-18 depicts the CURE-PRO-mediated BRD4 degradation for BRD monomers (JQ1 derivatives comprising of catechol linkers), and CRBN ligands, 8048 and 8049 (pomalidomide derivatives comprising boronic acid linkers) combined in a 1:1 ratio.\nHeLa cells (2.5×10^6) were treated for 24 hours with the compounds solubilized in DMSO. The compounds were added at 10 μM each. Standardized protein samples were electrophoresed and imaged as described in the immunoblotting section above. […]"}}}
{"smiles": "CCNC(=O)C[C@@H]1N=C(c2ccc(Sc3ccccc3)cc2)c2cc(OC)ccc2-n2c(C)nnc21", "note": "[BRD-E52C, N-ethyl-2-((4S)-8-methoxy-1-methyl-6-(4-(phenylthio)phenyl)-4H-benzo[f][1,2,4]triazolo[4,3-a][1,4]diazepin-4-yl)acetamide]", "values": [{"measurement": "BRD4 degradation", "setting": "BRD4 [1]", "result": "failed to induce degradation even at 10 μM"}]}
{"smiles": "Cc1sc2c(c1C)C(c1ccc(Cl)cc1)=N[C@@H](CC(=O)Nc1ccc(OCCOCCOCCOCCNc3cccc4c3C(=O)N(C3CCC(=O)NC3=O)C4=O)cc1)c1nnc(C)n1-2", "note": "(some centres unmarked) [ARV-825, reference compound]", "values": [{"measurement": "suppression of SLC19A1 expression", "setting": "SLC19A1; 10 μM, single agent", "result": "Complete suppression of SLC19A1 was evident"}]}
{"smiles": "CCNC(=O)C[C@@H]1N=C(c2ccc(Cl)cc2)c2cc(OCCOCCNC(=O)c3cccc(O)c3O)ccc2-n2c(C)nnc21", "note": "[BRD-N39, N-(2-(2-(((4S)-6-(4-chlorophenyl)-4-(2-(ethylamino)-2-oxoethyl)-1-methyl-4H-benzo[f][1,2,4]triazolo[4,3-a][1,4]diazepin-8-yl)oxy)ethoxy)ethyl)-2,3-dihydroxybenzamide]", "values": [{"measurement": "suppression of SLC19A1 expression", "setting": "SLC19A1; 10 μM each, with MDM2 ligand 8310", "result": "a rightward shift in the curve and an increase in the Ct values"}, {"measurement": "suppression of SLC19A1 expression", "setting": "SLC19A1; 10 μM each, with MDM2 ligand 8312", "result": "Complete suppression of SLC19A1 was evident"}, {"measurement": "selectivity of degradation within the BRD protein family", "setting": "BRD4 [2]", "result": "some selectivity for BRD4 over BRD2 and BRD3"}, {"measurement": "Degradation of BRD4, combination with CRBN ligand [drawing 457]", "setting": "BRD4 [3]; Table 4, aryl-boronic acid-containing CRBN ligand drawn as drawing 457 (by the text apparently 8048)", "result": "✓ (A black check mark indicates efficacy of 30% to 70% or higher protein degradation)"}, {"measurement": "Degradation of BRD4, combination with MDM2 ligand [drawing 463]", "setting": "BRD4 [3]; Table 5, aryl-boronic acid-containing MDM2 ligand drawn as drawing 463 (apparently 8310)", "result": "✓ (A black check mark indicates efficacy of 30% to 70% or higher protein degradation)"}, {"measurement": "Degradation of BRD4, combination with MDM2 ligand [drawing 464]", "setting": "BRD4 [3]; Table 5, aryl-boronic acid-containing MDM2 ligand drawn as drawing 464 (apparently 8312)", "result": "✓ (A black check mark indicates efficacy of 30% to 70% or higher protein degradation)"}]}
{"smiles": "CCNC(=O)C[C@@H]1N=C(c2ccc(Sc3cccc(B(O)O)c3)cc2)c2cc(OC)ccc2-n2c(C)nnc21", "note": "[BRD-E52, (3-((4-((4S)-4-(2-(ethylamino)-2-oxoethyl)-8-methoxy-1-methyl-4H-benzo[f][1,2,4]triazolo[4,3-a][1,4]diazepin-6-yl)phenyl)thio)phenyl)boronic acid]", "values": [{"measurement": "BRD4 degradation with pomalidomide and the BRD ligand (no 8047)", "setting": "BRD4 [4]; 10 μM", "result": "failed to induce BRD4 degradation"}, {"measurement": "BRD4 degradation after preincubation with pomalidomide", "setting": "BRD4 [4]; 10 μM, 1:1 with CRBN ligand 8047, pomalidomide preincubated 15 min at equimolar concentration", "result": "inhibition of CURE-PRO-mediated BRD4 degradation"}, {"measurement": "BRD4 degradation, time dependence and washout", "setting": "BRD4 [1]; 4-24 h, 10 μM each, co-dosed with CRBN ligand 8047, washed after 4 h", "result": "marked BRD4 degradation after 4 h with sustained degradation for up to 8 h after drugs are washed out"}, {"measurement": "BRD4 degradation", "setting": "BRD4 [1]", "result": "marked BRD4 degradation"}, {"measurement": "Degradation of BRD4, combination with CRBN ligand [drawing 421]", "setting": "BRD4 [3]", "result": "✓ (A black check mark indicates efficacy of 30% to 70% or higher protein degradation)"}, {"measurement": "Degradation of BRD4, combination with CRBN ligand [drawing 422]", "setting": "BRD4 [3]", "result": "✓ (A black check mark indicates efficacy of 30% to 70% or higher protein degradation)"}]}
{"smiles": "COc1ccc2c(c1)C(c1ccc(Cl)cc1)=N[C@@H](CC(=O)NCCNC(=O)/C=C/c1cccc(B(O)O)c1)c1nnc(C)n1-2", "note": "[BRD-E30, (3-((E)-3-((2-(2-((4S)-6-(4-chlorophenyl)-8-methoxy-1-methyl-4H-benzo[f][1,2,4]triazolo[4,3-a][1,4]diazepin-4-yl)acetamido)ethyl)amino)-3-oxoprop-1-en-1-yl)phenyl)boronic acid]", "values": [{"measurement": "BRD4 degradation", "setting": "BRD4 [4]; BRD ligand (monomer) alone", "result": "no change in expression is observed"}, {"measurement": "Degradation of BRD4, combination with CRBN ligand [drawing 421]", "setting": "BRD4 [3]", "result": "✓ (A black check mark indicates efficacy of 30% to 70% or higher protein degradation)"}, {"measurement": "Degradation of BRD4, combination with CRBN ligand [drawing 422]", "setting": "BRD4 [3]", "result": "✓ (A black check mark indicates efficacy of 30% to 70% or higher protein degradation)"}]}
